From patent publication US7618961B2, “Inhibitors of 11-beta-hydroxy steroid dehydrogenase type 1” (Biovitrum AB, priority 2000, dated 2009) come the findings set out here.

Counter-ions that a name gives are not always drawn.

For `Cc1c(Cl)cccc1S(=O)(=O)Nc1nc(CC(=O)Oc2ccccc2)cs1` [Example 89A, Phenyl 2-(2-{[(3-chloro-2-methylphenyl)sulfonyl]amino}-1,3-thiazol-4-yl)acetate], the melting point was 189 °C.

Turning to `Cc1sc(NS(=O)(=O)c2ccc(-c3ccccc3)cc2)nc1CC(=O)N1CCOCC1` [Example 160A, N-{5-methyl-4-[2-(4-morpholinyl)-2-oxoethyl]-1,3-thiazol-2-yl}[1,1′-biphenyl]-4-sulfonamide], the melting point was 204 to 206 °C.

As to `CNC(=O)Cc1csc(NS(=O)(=O)c2cccc(Cl)c2C)n1` [Example 106A, 2-(2-{[(3-Chloro-2-methylphenyl)sulfonyl]amino}-1,3-thiazol-4-yl)-N-methylacetamide], the melting point came to 165 °C.

`CCOC(=O)Cc1csc(NS(=O)(=O)c2cccc(Cl)c2C)n1` [Example 8A, Ethyl 2-(2-{[(3-chloro-2-methylphenyl)sulfonyl]amino}-1,3-thiazol-4-yl)acetate] yielded a melting point of 154 °C.

`CCOC(=O)Cc1csc(NS(=O)(=O)c2ccc(C)cc2)n1` [Example 5A, Ethyl 2-(2-(((4-methylphenyl)sulfonyl)amino)-1,3-thiazol-4-yl)acetate] showed a melting point of 173 °C.

Molecule `CCOC(=O)Cc1csc(NS(=O)(=O)c2ccccc2C(F)(F)F)n1` [Example 25A, Ethyl [2-({[2-(trifluoromethyl)phenyl]sulfonyl}amino)-1,3-thiazol-4-yl]acetate] returned a melting point of 171 °C.

Regarding `CCOC(=O)Cc1csc(NS(=O)(=O)c2ccc(Br)cc2)n1` [Example 28A, Ethyl 2-(2-{[(4-bromophenyl)sulfonyl]amino}-1,3-thiazol-4-yl)acetate], the melting point is 183 °C.

`Cc1sc(NS(=O)(=O)c2c(Cl)cc(Cl)cc2Cl)nc1CC(=O)N1CCOCC1` [Example 161A, 2,4,6-trichloro-N-{5-methyl-4-[2-(4-morpholinyl)-2-oxoethyl]-1,3-thiazol-2-yl}benzenesulfonamide] came in with a melting point of 216 to 217 °C.

In turn, `O=C(O)Cc1csc(NS(=O)(=O)c2ccccc2Cl)n1` [Example 86A, (2-{[(2-Chlorophenyl)sulfonyl]amino}-1,3-thiazol-4-yl)acetic acid] showed a melting point of 176 °C.

The molecule `CCOC(=O)Cc1csc(NS(=O)(=O)c2cc(Cl)ccc2Cl)n1` [Example 77A, Ethyl (2-{[(2,5-dichlorophenyl)sulfonyl]amino}-1,3-thiazol-4-yl)acetate] displayed a melting point of 171 °C.

On to `CCOC(=O)Cc1csc(NS(=O)(=O)c2cccc(Br)c2)n1` [Example 12A, Ethyl 2-(2-{[(3-bromophenyl)sulfonyl]amino}-1,3-thiazol-4-yl)acetate], for which the melting point was 155 °C.

Molecule `CCNC(=O)Cc1csc(NS(=O)(=O)c2cccc(Cl)c2C)n1` [Example 107A, 2-(2-{[(3-Chloro-2-methylphenyl)sulfonyl]amino}-1,3-thiazol-4-yl)-N-ethylacetamide] came in with a melting point of 96 °C.

Regarding `Cc1c(Cl)cccc1S(=O)(=O)Nc1nc(CC(=O)N2CCOCC2)cs1` [Example 148A, 3-Chloro-2-methyl-N-{4-[2-(4-morpholinyl)-2-oxoethyl]-1,3-thiazol-2-yl}benzenesulfonamide], the melting point is 208 to 209 °C.

Molecule `Cc1c(Cl)cccc1S(=O)(=O)Nc1nc(CCOC(=O)N2CCOCC2)cs1` [Example 196A, 2-(2-{[(3-Chloro-2-methylphenyl)sulfonyl]amino}-1,3-thiazol-4-yl)ethyl 4-morpholinecarboxylate] displayed a melting point of 161 °C.

Turning to `CNC(=O)Cc1csc(NS(=O)(=O)c2cc(Cl)sc2Cl)n1` [Example 99A, 2-(2-{[(2,5-Dichloro-3-thienyl)sulfonyl]amino}-1,3-thiazol-4-yl)-N-methylacetamide], the melting point came out at 183 °C.

With `Cc1ccc(S(=O)(=O)Nc2nc(CC(=O)O)cs2)cc1` [Example 84A, 2-(2-{[(4-Methylphenyl)sulfonyl]amino}-1,3-thiazol-4-yl)acetic acid], the melting point amounted to 187 °C.

With `Cc1cc(Cl)cc(Cl)c1S(=O)(=O)Nc1nc(CC(=O)N2CCOCC2)c(C)s1` [Example 159A, 2,4-Dichloro-6-methyl-N-{5-methyl-4-[2-(4-morpholinyl)2-oxoethyl]-1,3-thiazol-2-yl}benzenesulfonamide], the melting point is 186 to 187 °C.

`CCOCCc1nc(NS(=O)(=O)c2cccc(Cl)c2C)sc1CN(C)C` [Example 190A, 3-Chloro-N-[5-[(dimethylamino)methyl]-4(2-ethoxyethyl)-1,3-thiazol-2-yl]-2-methylbenzenesulfonamide]: the melting point fell in the range of 152 to 153 °C.

`Cc1c(Cl)cccc1S(=O)(=O)Nc1nc(CCOC(=O)C(C)C)cs1` [Example 193A, 2-(2-{[(3-Chloro-2-methylphenyl)sulfonyl]amino}-1,3-thiazol-4-yl)ethyl 2-methylpropanoate] registered a melting point of 118 °C.

The molecule `CCNC(=O)Cc1csc(NS(=O)(=O)c2ccc(F)cc2F)n1` [Example 102A, 2-(2-{[(2,4-Difluorophenyl)sulfonyl]amino}-1,3-thiazol-4-yl)-N-ethylacetamide] registered a melting point of 150 °C.

As to `Cc1c(Cl)cccc1S(=O)(=O)Nc1nc(CC(=O)N2CCCC2)cs1` [Example 142A, 3-Chloro-2-methyl-N-{4-[2-oxo-2-(1-pyrrolidinyl)ethyl]-1,3-thiazol-2-yl}benzenesulfonamide], the melting point was found to be 107 °C.

`Cc1c(Cl)cccc1S(=O)(=O)Nc1nc(CC(=O)Nc2ccccc2)cs1` [Example 108A, 2-(2-{[(3-Chloro-2-methylphenyl)sulfonyl]amino}-1,3-thiazol-4-yl)-N-phenylacetamide]: the melting point worked out at 202 °C.

As to `CCOC(=O)Cc1csc(NS(=O)(=O)c2cccc(C(F)(F)F)c2)n1` [Example 26A, Ethyl [2-({[3-(trifluoromethyl)phenyl]sulfonyl}amino)-1,3-thiazol-4-yl]acetate], the melting point was 145 °C.

As for `COC(=O)Cc1csc(NS(=O)(=O)c2cccc(Cl)c2C)n1` [Example 90A, Methyl (2-{[(3-chloro-2-methylphenyl)sulfonyl]amino}-1,3-thiazol-4-yl)acetate], the melting point is 187 °C.

For `CCOC(=O)Cc1csc(NS(=O)(=O)c2ccc(-c3ccccc3)cc2)n1` [Example 10A, Ethyl 2-{2-[([1,1′-biphenyl]-4-ylsulfonyl)amino]-1,3-thiazol-4-yl}acetate], the melting point amounted to 182 °C.

`Cc1c(Cl)cccc1S(=O)(=O)Nc1nc(CC(=O)O)cs1` (as salt: salt) [Example 87A, 2-(2-{[(3-Chloro-2-methylphenyl)sulfonyl]amino}-1,3-thiazol-4-yl)acetic acid] came in with a melting point of 198 °C.

In the case of `O=C(O)Cc1csc(NS(=O)(=O)c2cc(Cl)sc2Cl)n1` (as salt: salt) [Example 85A, 2-(2-{[(2,5-Dichloro-3-thienyl)sulfonyl]amino}-1,3-thiazol-4-yl)acetic acid], the melting point was found to be 174 °C.

For the molecule `Cc1sc(NS(=O)(=O)c2cccc(Cl)c2C)nc1CC(=O)N1CCOCC1` [Example 162A, 3-chloro-2-methyl-N-{5-methyl-4-[2-(4-morpholinyl)-2-oxoethyl]-1,3-thiazol-2-yl}benzenesulfonamide], the melting point lay in the range of 194 to 195 °C.

For `Cc1c(Cl)cccc1S(=O)(=O)Nc1nc(CC(=O)N(C)C)cs1` [Example 131A, 2-(2-{[(3-Chloro-2-methylphenyl)sulfonyl]amino}-1,3-thiazol-4-yl)-N,N-dimethylacetamide], the melting point came to 84 °C.

For the molecule `CCOC(=O)Cc1csc(NS(=O)(=O)c2ccc(C(F)(F)F)cc2)n1` [Example 27A, Ethyl [2-({[4-(trifluoromethyl)phenyl]sulfonyl}amino)-1,3-thiazol-4-yl]acetate], the melting point was 174 °C.

Molecule `Cc1c(Cl)cccc1S(=O)(=O)Nc1nc(CC(=O)N2CCSCC2)cs1` [Example 165A, 3-Chloro-2-methyl-N-{4-[2-oxo-2-(4-thiomorpholinyl)ethyl]-1,3-thiazol-2-yl}benzenesulfonamide] showed a melting point of 103 to 106 °C.

The molecule `Cc1c(Cl)cccc1S(=O)(=O)Nc1nc(CC(=O)NC(c2ccccc2)c2ccccc2)cs1` [Example 113A, N-Benzhydryl-2-(2-{[(3-chloro-2-methylphenyl)sulfonyl]amino}-1,3-thiazol-4-yl)acetamide] displayed a melting point of 200 °C.

In turn, `CCC(=O)OCCc1csc(NS(=O)(=O)c2cccc(Cl)c2C)n1` [Example 192B, 2-(2-{[(3-Chloro-2-methylphenyl)sulfonyl]amino}-1,3-thiazol-4-yl)ethyl propionate] returned a melting point of 122 °C.

What is called melting point is the temperature, or range, at which the solid turns liquid.
